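1) Cells in 96-well plates. 2) Compound, 48 h, 5 concentrations. 3) Linear interpolation between surrounding doses. 4) Unreached endpoint = highest concentration. The concentration for full growth arrest is given as TGI.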
Key:
Test in all cases: NCI anticancer screen, dose series, 48 h
SK-MEL-5 melanoma = test system: SK-MEL-5 melanoma
BT-549 breast = test system: BT-549 breast
NCI-H522 lung = test system: NCI-H522 lung
M14 melanoma = test system: M14 melanoma
DU-145 prostate = test system: DU-145 prostate
SF-295 CNS = test system: SF-295 CNS
NCI-H460 lung = test system: NCI-H460 lung
HOP-62 NSCLC = test system: HOP-62 NSCLC
SK-MEL-28 melanoma = test system: SK-MEL-28 melanoma
HT29 colon = test system: HT29 colon
SW-620 colon = test system: SW-620 colon
MALME-3M melanoma = test system: MALME-3M melanoma
NCI-H226 lung = test system: NCI-H226 lung

| Structure (SMILES) | TGI (SK-MEL-5 melanoma) | TGI (BT-549 breast) | TGI (NCI-H522 lung) | TGI (M14 melanoma) | TGI (DU-145 prostate) | TGI (SF-295 CNS) | TGI (NCI-H460 lung) | TGI (HOP-62 NSCLC) | TGI (SK-MEL-28 melanoma) | TGI (HT29 colon) | TGI (SW-620 colon) | TGI (MALME-3M melanoma) | TGI (NCI-H226 lung) |
| --- | --- | --- | --- | --- | --- | --- | --- | --- | --- | --- | --- | --- | --- |
| CCOC(=O)c1cc(C2CCN(Cc3ccccc3)C2=O)c(C(=O)/C=C(/C)N)[nH]1 (stereo unspecified) | > 100 µM | > 100 µM | > 100 µM | > 100 µM | > 100 µM | > 100 µM | > 100 µM | > 100 µM | > 100 µM | > 100 µM | > 100 µM | > 100 µM |  |
| O=C(N/N=C\c1ccc(Cl)cc1)Nc1cccc2ccccc12 | > 37.4 µM | > 100 µM | > 31.5 µM | > 100 µM | > 100 µM | 6.2 µM | 10.2 µM | 5.25 µM | > 100 µM | > 100 µM | > 76.6 µM | > 24.4 µM | > 30 µM |
| Nc1nc(N)c2c(-c3ccccc3)ccnc2n1 | > 100 µM | > 100 µM | > 100 µM |  | > 100 µM | > 100 µM | > 100 µM | > 100 µM | > 100 µM | > 100 µM | > 100 µM | > 100 µM | > 100 µM |
| COC(=O)CCc1cc(OC)c2oc(-c3ccc(OC)c(OC)c3)c(CO)c2c1 | > 100 µM | > 100 µM | > 100 µM | > 100 µM | > 100 µM | > 100 µM | > 100 µM | > 100 µM | > 100 µM | > 100 µM | > 100 µM | > 100 µM | > 100 µM |
| CC(=O)Oc1ccc(C)c2c1[C@H]1CC[C@]3(C)[C@@H](OC(C)=O)CC[C@H]3[C@@H]1CC2 | 34.9 µM | 32 µM | 34.1 µM | 32.2 µM | 66.6 µM | 48.5 µM | 37.4 µM | 32 µM | 33.2 µM | 33.5 µM | 34.4 µM | 30.4 µM | 54.8 µM |
| CCOC(=O)NC(C(F)(F)F)(C(F)(F)F)P(=O)(OCC)OCC |  | > 100 µM | 36.9 µM | > 100 µM | > 100 µM | > 100 µM | > 100 µM | > 100 µM | > 100 µM | > 100 µM | > 100 µM | > 100 µM | > 100 µM |
| COc1c(-c2ccc(F)cc2)oc2c(CC(=O)O)cccc2c1=O | > 100 µM | > 100 µM | > 100 µM | > 100 µM | > 100 µM | > 100 µM |  | > 100 µM |  | > 100 µM |  | > 100 µM | > 100 µM |
| CCOC(=O)c1c(Br)c(-c2ccc([N+](=O)[O-])cc2)c(Br)n1C | > 10 µM | > 10 µM | > 10 µM | > 10 µM | > 10 µM | > 10 µM | > 10 µM | > 10 µM | > 10 µM | > 10 µM |  | > 10 µM | > 10 µM |
| CCN(CC)CCC(=O)Nc1ccc2sc3ccccc3c(=O)c2n1 | 33.8 µM | 36.1 µM | 30.4 µM | 28.1 µM | > 100 µM | 48.9 µM | 61.6 µM | 37.8 µM | 33.6 µM | > 100 µM | 33.9 µM | 39.1 µM |  |
| CC(=O)O[C@H]1C(=O)[C@@]2(C)[C@H]([C@H](OC(=O)c3ccccc3)[C@]3(O)C[C@H](OC(=O)[C@H](O)[C@@H](NC(=O)OC(C)(C)C)c4ccco4)C(C)=C1C3(C)C)[C@]1(OC(C)=O)CO[C@@H]1C[C@@H]2O | 19 µM | < 0.005 µM | 0.00875 µM | 25.2 µM | < 0.005 µM | < 0.005 µM | > 19 µM | 0.601 µM | > 28.3 µM | 0.24 µM | > 50 µM | > 47 µM |  |
| CC(C)(CN1CCCCC1)C(=O)CC(SCCS(=O)(=O)O)c1ccccc1 (stereo unspecified) | 31.4 µM | 49.4 µM | 5.83 µM | 26 µM | 29.3 µM | 26.5 µM | > 100 µM | 62.1 µM |  | 31.7 µM | 28.8 µM | 33.3 µM | 62 µM |
| N#Cc1c2c(c(Nc3cccc(C(F)(F)F)c3)n3c1nc1ccccc13)CCCC2 | > 100 µM | 95.3 µM | 22.1 µM |  | > 100 µM | > 100 µM | > 100 µM | 36.3 µM | 47.5 µM | 56.4 µM | > 100 µM | 85.7 µM | 63.2 µM |
| O=C1NC(NNc2ccccc2)=N/C1=C\c1ccco1 | > 100 µM | 50.7 µM | 27.8 µM | 44.5 µM | 42.9 µM | > 100 µM | 55 µM | > 100 µM | 68.5 µM | 52.3 µM | 60.7 µM | 81.6 µM |  |
| O=C1/C(=C/c2cccc([N+](=O)[O-])c2)Cc2ccccc21 |  | > 100 µM | > 100 µM | > 100 µM | > 100 µM | > 100 µM | > 100 µM | > 100 µM | > 100 µM | > 100 µM | > 100 µM | > 100 µM | > 100 µM |
| Cn1c2ccccc2c(=NNc2ccc(S(=O)(=O)N=C(N)N)cc2)c2ccccc21 | 20.1 µM | 29.1 µM | 11 µM | 30.1 µM | 32.3 µM | 31.1 µM | 14 µM | 28.2 µM |  | 14.5 µM | 21.1 µM | 20.7 µM | 19 µM |
